Laboratory results reported in patent US6531469B1, “Substituted 1-(4-piperidyl)-3-(aryl) isothioureas their preparation and their therapeutic application” (Pierre Fabre Medicament, priority 1999, dated 2003).
Where a name gives a salt, the structure may show the parent alone. Values belong to the molecule of their own block, whether it stands above or below them.

What was measured:
rat isolated left atrium = experiment: Inhibition of the contracture with veratrine, rat isolated left atrium; conditions: veratrine-induced contracture, 10^−7 M of test compound
Description: (§1) The compounds of the present invention of formula I and the therapeutically acceptable salts thereof have advantageous pharmacological properties. These derivatives are active in vitro, on cardiomyocytes, by inhibiting the diastolic contracture induced with veratrine, on rat isolated left atrium. They also abolish the diastolic contracture induced by the global ischemia of infused isolated guinea pig heart according to the Langendorff technique. These compounds are also active in vivo, in reinfusion ischemia in anesthetized rabbits: they inhibit the electrical disturbances in the ECG which are caused by reinfusion ischemia, without any appreciable hemodynamic effect, and are not cardiac depressants. Such compounds are useful preventively or curatively in the treatment of coronaropathies, cardiac and cerebral ischemia in all their forms and in the treatment of atherosclerosis, cardiac insufficiency, pain, migraine and epilepsy.
1) Inhibition of the contracture with veratrine, of rat isolated left atrium, was carried out according to the technique of Le Grand et al. (Naunyn—Schmiedeberg's Arch Pharmacol (1993) 348 p 184-190). The results are given in Table I. The percentages of inhibition are relative to a concentration of 10^−7 M of test compound.

[1] = tested on: infused isolated guinea pig heart; experiment: Inhibition of diastolic contracture induced by global ischemia of infused isolated guinea pig heart (Langendorff); conditions: global ischemia 50 min, relative to vehicle group; for inhibition at 1 µM: Cavia porcellus, 50 min
Description: as §1
2) Inhibition of the diastolic contracture induced by the global ischemia of infused isolated guinea pig heart is carried out according to the technique described by Le Grand B. et al. (Am. J. Physiol. 269, H533-H540 (1995)). The guinea pig hearts collected are infused with a modified Krebs solution and, after stabilization for 20 minutes, the test compound dissolved in water or in aqueous 1% DMSO solution is added. After 15 minutes, global ischemia is induced by stopping the coronary infusion for 50 minutes, followed by reinfusion for 1 h. The inhibition of ischemic contracture, in the presence of the compounds of the present invention, is measured relative to that obtained in the vehicle group. The results are given in Table II by way of non-limiting example at a concentration of 1 μM.

anesthetized rabbits = experiment: Ischemia-reinfusion in anesthetized rabbits, oral route; assay type: in vivo; conditions: anesthetized rabbit
Description: as §1
The compounds of the present invention are also active via the oral route in the test of ischemia-reinfusion in anesthetized rabbits, according to the method of Verscheure et al. (J. Cardiovasc Pharmacol (1995) 25 p 126-133). The results for the compounds of Examples 6 and 14 are given in Table III below, by way of non-limiting example: […]

melting point: 167 °C
Molecule: CN(C1=Nc2ccccc2CS1)C1CCN(CCCCCOCc2ccc(F)cc2)CC1.O=C(O)/C=C/C(=O)O

melting point: 169 °C
Molecule: CN(C1=Nc2ccccc2CS1)C1CCN(CCCCCOCc2ccc(F)c(F)c2)CC1.O=C(O)/C=C/C(=O)O

melting point: 170 °C
Molecule: CN(C1=Nc2ccccc2CS1)C1CCN(CCCCOCc2ccc(F)c(F)c2)CC1.O=C(O)/C=C/C(=O)O

melting point: 168 °C
Molecule: CN(C1=Nc2ccccc2CS1)C1CCN(CCCOCc2ccc(F)c(F)c2)CC1.O=C(O)/C=C/C(=O)O

melting point: 163 °C
Molecule: CN(C1=Nc2ccccc2CS1)C1CCN(CCCCOCCc2ccc(F)c(F)c2)CC1.O=C(O)/C=C/C(=O)O

melting point: 163 °C
Molecule: COc1ccc(COCCCCCN2CCC(N(C)C3=Nc4ccccc4CS3)CC2)cc1.O=C(O)/C=C/C(=O)O

melting point: 165 °C
Molecule: COc1ccc(COCCCCN2CCC(N(C)C3=Nc4ccccc4CS3)CC2)cc1.O=C(O)/C=C/C(=O)O

melting point: 166 °C
Molecule: COc1ccc(COCCCN2CCC(N(C)C3=Nc4ccccc4CS3)CC2)cc1.O=C(O)/C=C/C(=O)O

melting point: 156 °C
Molecule: COc1ccc(CCOCCCCN2CCC(N(C)C3=Nc4ccccc4CS3)CC2)cc1.O=C(O)/C=C/C(=O)O

melting point: 155 °C
Molecule: COc1ccc(CCOCCCN2CCC(N(C)C3=Nc4ccccc4CS3)CC2)cc1.O=C(O)/C=C/C(=O)O

melting point: 152 to 153 °C
Molecule: COc1ccc(CCOCCN2CCC(N(C)C3=Nc4ccccc4CS3)CC2)cc1.O=C(O)/C=C/C(=O)O

melting point: 166 to 167 °C
Molecule: CN(C1=Nc2ccccc2CS1)C1CCN(CCOCc2ccccc2)CC1.O=C(O)/C=C/C(=O)O

melting point: 166 °C
Molecule: CN(C1=Nc2ccccc2CS1)C1CCN(CCCOCCc2ccccc2)CC1.O=C(O)/C=C/C(=O)O

melting point: 132 to 133 °C
Molecule: COc1ccc(CCOCC(O)CN2CCC(N(C)C3=Nc4ccccc4CS3)CC2)cc1.O=C(O)/C=C/C(=O)O (stereo not drawn)

melting point: 169 to 172 °C
Molecule: Cc1ccc2c(c1)CSC(N(C)C1CCN(CCCOCCc3ccc(F)cc3)CC1)=N2.O=C(O)/C=C/C(=O)O

melting point: 167 to 170 °C
Molecule: CN(C1=Nc2ccc(Cl)cc2CS1)C1CCN(CCCOCCc2ccc(F)cc2)CC1.O=C(O)/C=C/C(=O)O

melting point: 68 °C
Molecule: COc1cc2c(c(OC)c1OC)N=C(N(C)C1CCN(CCCOCCc3ccc(F)cc3)CC1)SC2.O=C(O)/C=C/C(=O)O

melting point: 163 to 164 °C
Molecule: CN(C1=Nc2ccccc2CS1)C1CCN(CCCOCc2ccc(F)cc2)CC1.O=C(O)/C=C/C(=O)O

melting point: 160 to 161 °C
Molecule: CN(C1=Nc2ccccc2CS1)C1CCN(CCOCc2ccc(F)cc2)CC1.O=C(O)/C=C/C(=O)O

melting point: 176 °C
Molecule: CN(C1=Nc2ccccc2CS1)C1CCN(CCCOCCCc2ccc(F)cc2)CC1.O=C(O)/C=C/C(=O)O

melting point: 163 to 164 °C
Molecule: CN(C1=Nc2ccccc2CS1)C1CCN(CCCOCCc2ccc(F)cc2)CC1 (as salt: fumarate) [Example 6, N-Methyl-N-[1-[3-[2-(4-fluorophenyl)ethoxy]propyl]-4-piperidyl]-4H-3,1-benzothiazin-2-amine Hydrogen Fumarate]

melting point: 145 to 146 °C
Molecule: CN(C1=Nc2ccccc2CS1)C1CCN(CCOCCc2ccc(F)cc2)CC1 (as salt: fumarate) [Example 9, N-Methyl-N-[1-[2-[2-(4-fluorophenyl)ethoxy]ethyl]-4-piperidyl]-4H-3,1-benzothiazin-2-amine]

melting point: 158 to 159 °C
Molecule: Fc1ccc(CCOCCCN2CCC(NC3=Nc4ccccc4CO3)CC2)cc1 (as salt: hydrochloride) (hydrate or solvate) [Example 30, N-[1-[3-[2-(4-Fluorophenyl)ethoxypropyl]-4-piperidyl]-4H-3,1-benzoxazin-2-amine Dihydrochloride Hydrate]

% change in arterial pressure (anesthetized rabbits; 0.63 mg/kg p.o.): 5%
Molecule: CN(C1=Nc2ccccc2CS1)C1CCN(CCCCOc2ccc(F)c(F)c2)CC1 [Control, N-Methyl-N-[1-[4-(3,4-difluorophenoxy)butyl]-4-piperidyl)-4H-3,1-benzothiazin-2-amine]
inhibition at 0.1 µM (rat isolated left atrium): 26%
inhibition at 1 µM [1]: 48%
% change in heart rate (anesthetized rabbits; 0.63 mg/kg p.o.): 0%
% inhibition of over-increase of ST segment (anesthetized rabbits; 0.63 mg/kg p.o.): 31%
Number of animals with reinfusion arrhythmia (anesthetized rabbits; 0.63 mg/kg p.o.): 1/5

melting point: 173 to 174 °C
Molecule: CN(C1=Nc2ccccc2CS1)C1CCN(CCCCOCCc2ccc(F)cc2)CC1.O=C(O)/C=C/C(=O)O [Example 5, N-Methyl-N-[1-[4-[2-(4-fluorophenyl)ethoxy]butyl]-4-piperidyl]-4H-3,1-benzothiazin-2-amine Hydrogen Fumarate]
inhibition at 0.1 µM (rat isolated left atrium): 63%

% change in arterial pressure (anesthetized rabbits; 0.63 mg/kg p.o.): 0%
Molecule: CN(C1=Nc2ccccc2CS1)C1CCN(CCCOCCc2ccc(F)cc2)CC1 [Example 6, N-Methyl-N-[1-[3-[2-(4-fluorophenyl)ethoxy]propyl]-4-piperidyl]-4H-3,1-benzothiazin-2-amine Hydrogen Fumarate]
inhibition at 0.1 µM (rat isolated left atrium): 41%
inhibition at 1 µM [1]: 79%
% change in heart rate (anesthetized rabbits; 0.63 mg/kg p.o.): −7%
% inhibition of over-increase of ST segment (anesthetized rabbits; 0.63 mg/kg p.o.): 42%
Number of animals with reinfusion arrhythmia (anesthetized rabbits; 0.63 mg/kg p.o.): 3/5

melting point: 162 °C
% change in arterial pressure (anesthetized rabbits; 0.63 mg/kg p.o.): 3%
Molecule: CN(C1=Nc2ccccc2CS1)C1CCN(CCCOCCc2ccc(F)c(F)c2)CC1.O=C(O)/C=C/C(=O)O [Example 14, N-Methyl-N-[1-[3-[2-(3,4-difluorophenyl)ethoxy]propyl]-4-piperidyl]-4H-3,1-benzothiazin-2-amine Hydrogen Fumarate]
inhibition at 0.1 µM (rat isolated left atrium): 32%
inhibition at 1 µM [1]: 77%
% change in heart rate (anesthetized rabbits; 0.63 mg/kg p.o.): −5%
% inhibition of over-increase of ST segment (anesthetized rabbits; 0.63 mg/kg p.o.): 83%
Number of animals with reinfusion arrhythmia (anesthetized rabbits; 0.63 mg/kg p.o.): 0/5

Molecule: CN(c1nc2ccccc2s1)C1CCN(CCCCOc2ccc(F)cc2)CC1 [Example R56865, N-(1-(4-(4-fluorophenoxy)butyl)4-piperidyl)-N-methyl-2-benzothiazolamine]
inhibition at 0.1 µM (rat isolated left atrium): 32%
% change in arterial pressure (anesthetized rabbits; 2.5 mg/kg p.o.): 27%
% change in heart rate (anesthetized rabbits; 2.5 mg/kg p.o.): 0%
% inhibition of over-increase of ST segment (anesthetized rabbits; 2.5 mg/kg p.o.): 0%
Number of animals with reinfusion arrhythmia (anesthetized rabbits; 2.5 mg/kg p.o.): 2/5
% change in arterial pressure (anesthetized rabbits; 10 mg/kg p.o.): 15%
% change in heart rate (anesthetized rabbits; 10 mg/kg p.o.): 5%
% inhibition of over-increase of ST segment (anesthetized rabbits; 10 mg/kg p.o.): 100%
Number of animals with reinfusion arrhythmia (anesthetized rabbits; 10 mg/kg p.o.): 0/5

Molecule: CS(=O)(=O)c1cc(C(=O)NC(=N)N)ccc1N1CCCCC1.Cl [HOE 694, 3-(Methylsulfonyl-4-piperidinobenzoyl)guanidine hydrochloride, reference compound]
% diastolic contracture inhibition at 1 μM [1]: 17%

% change in arterial pressure (anesthetized rabbits; 10 mg/kg p.o.): 12%
Molecule: CN(c1nc2ccccc2s1)C1CCN(CC(O)COc2ccc(F)cc2)CC1 (stereo not drawn) [Sabeluzole]
inhibition at 0.1 µM (rat isolated left atrium): 5%
% change in heart rate (anesthetized rabbits; 10 mg/kg p.o.): 0%
% inhibition of over-increase of ST segment (anesthetized rabbits; 10 mg/kg p.o.): 34%
Number of animals with reinfusion arrhythmia (anesthetized rabbits; 10 mg/kg p.o.): 3/4

Molecule: N-Methyl-N-[1-[2-hydroxy-3-(4-fluorophenylmethoxy)-propyl]-4-piperidyl]-4H-3,1-benzothiazin-2-amine Hemifumarate [Example 23]
% inhibition at 10^−7 M (rat isolated left atrium): 35%
